Data published in patent US20210163437A1, “DERIVATIVES OF TRICYCLIC SPIROLACTONES AND USES THEREOF IN TREATMENT AND MANAGEMENT OF PAIN” (Yissum Research Development Company of The Hebrew …, priority 2017, published 2021).
Values joined by “and” are separate entries in the source; they are usually repeats but may differ in a detail not shown here. Equal values may be shown once. “Also recorded” adds a separate entry of the source.

Assays:
Assay type in all cases: cell-based
rat TRPV1 (rTRPV1) [1] = biological target: T1, rat TRPV1 (rTRPV1) (Rattus norvegicus, UniProt O35433); test: live-cell calcium imaging of HEK293T cells transiently expressing rat TRPV1; conditions: for compound-evoked calcium response normalized to the capsaicin (2 μM)-evoked response: compound 300 μM (0.3 mM), fura-2-loaded HEK293T transiently expressing rTRPV1, only capsaicin positive cells analyzed
T1 construct: expressed in transfected cells; host or cells: HEK293T (transient)
T1 sequence (O35433 whole entry): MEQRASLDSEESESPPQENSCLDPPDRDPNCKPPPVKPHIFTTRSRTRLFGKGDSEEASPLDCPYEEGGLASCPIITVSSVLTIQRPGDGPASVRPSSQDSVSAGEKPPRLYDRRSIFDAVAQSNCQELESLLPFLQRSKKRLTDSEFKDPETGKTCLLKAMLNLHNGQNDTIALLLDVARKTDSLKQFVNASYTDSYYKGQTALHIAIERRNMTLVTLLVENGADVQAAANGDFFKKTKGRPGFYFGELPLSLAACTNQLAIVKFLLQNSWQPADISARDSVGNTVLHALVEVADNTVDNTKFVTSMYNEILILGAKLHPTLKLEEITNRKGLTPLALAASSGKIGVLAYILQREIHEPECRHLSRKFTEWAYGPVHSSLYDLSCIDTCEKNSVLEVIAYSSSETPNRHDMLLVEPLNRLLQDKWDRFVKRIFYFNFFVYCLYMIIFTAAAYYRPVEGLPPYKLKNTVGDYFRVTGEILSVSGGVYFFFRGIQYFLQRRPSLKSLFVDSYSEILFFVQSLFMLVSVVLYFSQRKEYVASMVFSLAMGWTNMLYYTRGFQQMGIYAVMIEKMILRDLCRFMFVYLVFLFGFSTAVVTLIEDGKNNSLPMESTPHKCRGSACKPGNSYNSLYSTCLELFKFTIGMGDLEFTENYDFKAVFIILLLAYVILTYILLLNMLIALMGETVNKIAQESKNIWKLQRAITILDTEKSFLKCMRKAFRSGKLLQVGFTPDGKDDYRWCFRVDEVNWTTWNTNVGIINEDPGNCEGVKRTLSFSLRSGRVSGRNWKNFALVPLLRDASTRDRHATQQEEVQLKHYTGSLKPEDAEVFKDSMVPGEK
Protocol: (3A) Top: Captured pseudocolor images of fura-2-loaded HEK293T cells transiently expressing rTRPV1, before (“Basal”) and after the application of synthesized tricyclic spirolactones (300 μM; ‘Comp.’), followed by the subsequent application of capsaicin (2 μM; “Cap”). Scale bar indicates level of intracellular calcium. Bottom: Box and whiskers plot showing the indicated compound (300 μM)-evoked calcium response of HEK293T cells expressing rTRPV1, normalized to the capsaicin (2 μM)-evoked response. Boxes represent the mean of 3-4 independent experiments (each n≥50 cells); only capsaicin-positive cells were analyzed. Statistical significance between the different compounds' normalized responses is indicated as follows: *p≤0.05; ***p≤0.001; ns, no statistical significance (ANOVA followed by multiple comparison test). (3B) Top: Captured pseudocolor images of fura-2-loaded HEK293T cells transiently expressing the wt rTRPV1 (“rV1”; top), chicken TRPV1 (“cV1”; middle), or the VBS mutated receptor rTRPV1-Y511G (“YG”; bottom), before (“Basal”) and after the application of compound 13 (300 μM; “13”), which was followed by the subsequent application of 2-APB (300 μM; “2APB”). Scale bar indicates level of intracellular calcium. Bottom: changes with time of intracellular calcium levels in fura-2-loaded HEK293T expressing rat TRPV1 (“rTRPV1”; red line), rat TRPV1-Y511G (“rTRPV1(YG)”; purple line), and chicken TRPV1 (“cTRPV1”; orange line) in response to compound 13 (300 μM; “13”; light gray bar), which was followed by the subsequent application of 2-APB (300 μM; “2APB”; gray bar). Each trace represents an average of 75-130 cells sensitive to 2-APB. […] (3C) Top: Captured pseudocolor images of fura-2-loaded HEK293T cells transiently expressing rTRPV1, before (“Basal”) and after the application of saturated tricyclic spirolactones (300 μM; “Comp.”), which was followed by the subsequent application of capsaicin (2 μM; “Cap”). Scale bar indicates the level of intracellular calcium. […] Boxes represent the mean of 3-4 independent experiments (each n≥50 cells); only capsaicin positive cells were analyzed. Statistical significance between the different compounds' normalized responses is indicated as follows: **p≤0.01; ***p≤0.001; ns, no statistical significance (ANOVA followed by multiple comparison test).
(§1) To examine whether the compact tricyclic spirolactones activate TRPV1, we scanned a library of synthesized compounds illustrated in FIG. 2C. […] To test this possibility, we recoded the response of rTRPV1 transiently expressed in HEK293T cells in the whole-cell or inside-out patch clamp configurations.

chicken TRPV1 = test: live-cell calcium imaging of HEK293T cells transiently expressing chicken TRPV1; conditions: compound 300 μM; followed by 2-APB 300 μM
Protocol: (§2) (3A) Top: Captured pseudocolor images of fura-2-loaded HEK293T cells transiently expressing rTRPV1, before (“Basal”) and after the application of synthesized tricyclic spirolactones (300 μM; ‘Comp.’), followed by the subsequent application of capsaicin (2 μM; “Cap”). Scale bar indicates level of intracellular calcium. Bottom: Box and whiskers plot showing the indicated compound (300 μM)-evoked calcium response of HEK293T cells expressing rTRPV1, normalized to the capsaicin (2 μM)-evoked response. Boxes represent the mean of 3-4 independent experiments (each n≥50 cells); only capsaicin-positive cells were analyzed. Statistical significance between the different compounds' normalized responses is indicated as follows: *p≤0.05; ***p≤0.001; ns, no statistical significance (ANOVA followed by multiple comparison test). (3B) Top: Captured pseudocolor images of fura-2-loaded HEK293T cells transiently expressing the wt rTRPV1 (“rV1”; top), chicken TRPV1 (“cV1”; middle), or the VBS mutated receptor rTRPV1-Y511G (“YG”; bottom), before (“Basal”) and after the application of compound 13 (300 μM; “13”), which was followed by the subsequent application of 2-APB (300 μM; “2APB”). Scale bar indicates level of intracellular calcium. […] Boxes represent the mean of 3-4 independent experiments (each n≥50 cells); only capsaicin positive cells were analyzed. […]

rTRPV1(Y511G) = biological target: T2, rTRPV1(Y511G) (Rattus norvegicus, UniProt O35433, Y511G); test: live-cell calcium imaging of HEK293T cells transiently expressing VBS-mutated rat TRPV1; conditions: compound 300 μM; followed by 2-APB 300 μM
T2 construct: expressed in transfected cells; host or cells: HEK293T (transient)
T2 sequence (O35433 whole entry Y511G): as the sequence (O35433 whole entry) above, with Y511G counted along it
Protocol: as §2

[2] = test system: acutely dissociated trigeminal ganglia neurons; test: neuronal response of acutely dissociated trigeminal ganglia neurons; conditions: compared with capsaicin sensitivity
Protocol: To examine whether the compact tricyclic spirolactones activate TRPV1, we scanned a library of synthesized compounds illustrated in FIG. 2C. […] Although our compounds are less hydrophobic than other VBS-binding molecules (e.g., capsaicin), most synthesized compounds could not be prepared in physiological salt solutions (i.e., Ringer) at concentrations greater than 1 mM without adding cytotoxic levels of DMSO. […] To confirm that the observed calcium increase is a direct result of TRPV1 activation through the VBS, we used chicken TRPV1, which is insensitive to vanilloids28, and VBS-mutated rat TRPV1 (rTRPV1(Y511G)). […] The functionality and expression of these channels were verified by their sensitivity to 2-aminoethoxydiphenyl borate (2-APB), a non-VBS TRPV1 activator. We next investigated the selectivity of compound 13 to TRPV1 by examining the neuronal response of acutely dissociated trigeminal ganglia neurons. […] A possible explanation to the observed lower response of 13 in comparison to capsaicin might be the accessibility of the compound to the intracellular VBS. To test this possibility, we recoded the response of rTRPV1 transiently expressed in HEK293T cells in the whole-cell or inside-out patch clamp configurations.

rTRPV1 [3] = biological target: T3, rTRPV1 (Rattus norvegicus, UniProt O35433); test: calcium imaging of rTRPV1 stably expressed in HEK293 cells (concentration-response, capsazepine block); conditions: for EC50 / Hill coefficient n: normalized concentration-response, fit to the Hill equation, rTRPV1 stably expressed in HEK293 cells
T3 construct: expressed in transfected cells
T3 sequence (O35433 whole entry): as the sequence (O35433 whole entry) above
Description: (§3) Each point represents the average (±SEM) response of 50 cells. […] Scale bar indicates level of intracellular calcium.
To further analyze the role of the aromatic anchor in TRPV1 activation by spirolactones, we compared the affinity of 13 to its vanilloid derivative 32.

rat TRPV1 (rTRPV1) [4] = biological target: T1, rat TRPV1 (rTRPV1); test: live-cell calcium imaging of HEK293T cells transiently expressing rat TRPV1; conditions: compound 18 at 0.3 mM or 1 mM applied before compound 13 (1 mM)
rTRPV1 [5] = biological target: T3, rTRPV1; test: patch clamp of rTRPV1 transiently expressed in HEK293T cells; conditions: voltage ramps between −80 and +80 mV; compound 32 1 mM, capsaicin 2 μM
Description: as §3, §1
TRPV1 is a non-selective cationic ion channel with a typical current profile. To examine whether our novel structure architecture activates the channel similarly as other VBS -associated agonists, we analyzed the current profile using the whole-cell configuration of the patch clamp technique. Using voltage ramps between −80 and +80 mV, we analyzed the channel response to 32 and capsaicin.

Compound: C=C1C[C@H]2CCC[C@H]3CC(=O)O[C@@]23C1 [Compound 10]
- compound-evoked calcium response normalized to the capsaicin (2 μM)-evoked response (rat TRPV1 (rTRPV1) [1]): active compounds

Compound: O=C1C[C@@H]2CC[C@@H]3CC=CC[C@]32O1 [Compound 13]
- compound-evoked calcium response normalized to the capsaicin (2 μM)-evoked response (rat TRPV1 (rTRPV1) [1]): unexpectedly robust response
- activation of chicken TRPV1 (intracellular calcium) (chicken TRPV1): did not activate
- activation of VBS-mutated rTRPV1-Y511G (intracellular calcium) (rTRPV1(Y511G)): did not activate
- selectivity to TRPV1: neuronal response [2]: activated only capsaicin sensitive neurons
- EC50 (rTRPV1 [3]): 127 ± 8.9 µM
- Hill coefficient n (rTRPV1 [3]): 2.7 and 2.7±0.5

Compound: CC1C[C@H]2CCC[C@H]3CC(=O)O[C@@]23C1 (some centres unmarked) [Compound 15]
- compound-evoked calcium response normalized to the capsaicin (2 μM)-evoked response (rat TRPV1 (rTRPV1) [1]): active compounds

Compound: O=C1C[C@@H]2CC[C@@H]3CCCC[C@]32O1 [Compound 18]
- compound-evoked calcium response normalized to the capsaicin (2 μM)-evoked response (rat TRPV1 (rTRPV1) [1]): most dramatic decrease in the level of activation
- inhibitory effect on the response of compound 13 (rat TRPV1 (rTRPV1) [4]): had no effect

Compound: O=C1C[C@@H]2CC[C@H]3C/C(=C/c4ccccc4)C[C@@]23O1 [Compound 23]
- compound-evoked calcium response normalized to the capsaicin (2 μM)-evoked response (rat TRPV1 (rTRPV1) [1]): no activity was detected

Compound: O=C1O[C@@]23CC=CC[C@H]2CC[C@H]3[C@H]1Cc1ccccc1 [Compound 31]
- compound-evoked calcium response normalized to the capsaicin (2 μM)-evoked response (rat TRPV1 (rTRPV1) [1]): strongest response; also recorded: capsaicin-like activity

Compound: COc1cc(C[C@H]2C(=O)O[C@@]34CC=CC[C@H]3CC[C@@H]24)ccc1O [Compound 32]
- compound-evoked calcium response normalized to the capsaicin (2 μM)-evoked response (rat TRPV1 (rTRPV1) [1]): strongest response; also recorded: capsaicin-like activity
- current-voltage profile, whole-cell patch clamp (rTRPV1 [5]): robust, outwardly rectifying currents of similar magnitude; also recorded: elicits the typical TRPV1 outwardly rectifying current
- EC50 (rTRPV1 [3]): 12.8 ± 1.6 µM
- Hill coefficient n (rTRPV1 [3]): 1.4 and 1.4±0.2

Compound: O=C1O[C@@]23CCCC[C@H]2CC[C@H]3[C@H]1Cc1ccccc1 [Compound 34]
- compound-evoked calcium response normalized to the capsaicin (2 μM)-evoked response (rat TRPV1 (rTRPV1) [1]): significant channel activation
- time course of the evoked calcium response (rat TRPV1 (rTRPV1) [1]; compound 300 μM, compared to compound 13 or 32): transiently response

Compound: COc1cc(CNC(=O)CCCC/C=C/C(C)C)ccc1O [capsaicin, reference compound]
- current-voltage profile, whole-cell patch clamp (rTRPV1 [5]): robust, outwardly rectifying currents of similar magnitude

Compound: Oc1cc2c(cc1O)CN(C(=S)NCCc1ccc(Cl)cc1)CCC2 [capsazepine, reference compound]
- inhibition of TRPV1 activation by compound 32 (rTRPV1 [3]; CPZ 20 μM, pre-incubation or application after pre-activation by 32 (100 and 300 μM)): resulted in channel inhibition
